Source: ChEMBL document CHEMBL5625202, “Synthesis, characterization and anti-breast cancer activities of stachydrine derivatives” (Eur J Med Chem, 2023)
Activity calls are given as the source filed them. The calls are words filed in the database; no cut-off is given here.

What was measured:
[1] = Toxicity in BALB/c mouse implanted with mouse 4T1 cells assessed as effect on BUN level at 0.2 mmol/Kg, po administered once every day for 14 days by routine blood analysis; type: organism-based; conditions: in vivo, 336 h, time 14 day
[2] = system: 4T1; assay: Anticancer activity against mouse 4T1 cells assessed as inhibition of cell growth incubated for 48 hrs by CCK-8 assay; type: functional, cell-based; conditions: 4T1, 48 h
[3] = Toxicity in BALB/c mouse implanted with mouse 4T1 cells assessed as change in liver histopathology at 0.2 mmol/Kg, po administered once every day for 14 days; type: organism-based; conditions: in vivo, 336 h, time 14 day
[4] = system: 4T1; assay: Anticancer activity against mouse 4T1 cells assessed as inhibition of cell growth incubated for 24 hrs by CCK-8 assay; type: functional, cell-based; conditions: 4T1, 24 h
[5] = Toxicity in BALB/c mouse implanted with mouse 4T1 cells assessed as body weight loss at 0.2 mmol/Kg, po administered once daily for 14 days; type: organism-based; conditions: in vivo, 336 h, time 14 day
[6] = Toxicity in BALB/c mouse implanted with mouse 4T1 cells assessed as reduction in spleen index at 0.2 mmol/Kg, po administered once every day for 14 days relative to control; type: organism-based; conditions: in vivo, 336 h, time 14 day
[7] = Prodrug conversion in cell culture medium containing 10% FBS assessed as drug hydrolysis by measuring stachydrine release at 3 to 20 hrs; type: ADME; conditions: cattle; time 3-20 hrs
[8] = Toxicity in BALB/c mouse implanted with mouse 4T1 cells assessed as increase in AST level at 0.2 mmol/Kg, po administered once every day for 14 days by routine blood analysis; type: organism-based; conditions: in vivo, 336 h, time 14 day
[9] = Toxicity in BALB/c mouse implanted with mouse 4T1 cells assessed as change in lung histopathology at 0.2 mmol/Kg, po administered once every day for 14 days; type: organism-based; conditions: in vivo, 336 h, time 14 day
[10] = system: 4T1; assay: Antitumor activity against mouse 4T1 cells implanted in BALB/c mouse assessed as change in tumor weight at 0.2 mmol/Kg, po administered once every day for 14 days; type: functional, organism-based; conditions: time 14.0 day
[11] = Toxicity in BALB/c mouse implanted with mouse 4T1 cells assessed as increase in monocytes at 0.2 mmol/Kg, po administered once every day for 14 days by routine blood analysis; type: organism-based; conditions: in vivo, 336 h, time 14 day
[12] = Toxicity in BALB/c mouse implanted with mouse 4T1 cells assessed as increase in mean platelet volume at 0.2 mmol/Kg, po administered once every day for 14 days by routine blood analysis; type: organism-based; conditions: in vivo, 336 h, time 14 day
[13] = Toxicity in BALB/c mouse implanted with mouse 4T1 cells assessed as increase in white blood cells at 0.2 mmol/Kg, po administered once every day for 14 days by routine blood analysis; type: organism-based; conditions: in vivo, 336 h, time 14 day
[14] = Toxicity in BALB/c mouse implanted with mouse 4T1 cells assessed as change in heart histopathology at 0.2 mmol/Kg, po administered once every day for 14 days; type: organism-based; conditions: in vivo, 336 h, time 14 day
[15] = system: 4T1; assay: Antitumor activity against mouse 4T1 cells implanted in BALB/c mouse assessed as tumor cell shrinkage at 0.2 mmol/Kg, po administered once every day for 14 days by histological staining based analysis; type: functional, organism-based; conditions: time 14.0 day
[16] = system: 4T1; assay: Induction of mitochondrial membrane potential loss in mouse 4T1 cells assessed as red fluorescence at 4000 uM incubated for 24 hrs by JC-1 staining based flow cytometric analysis (Rvb= 87.9%); type: cell-based
[17] = Prodrug conversion in carboxylesterase (unknown origin) solution assessed as drug hydrolysis by measuring stachydrine release at 3 to 20 hrs; type: ADME, Homo sapiens; conditions: time 3-20 hrs
[18] = system: 4T1; assay: Antitumor activity against mouse 4T1 cells implanted in BALB/c mouse assessed as tumor cell necrosis at 0.2 mmol/Kg, po administered once every day for 14 days by histological staining based analysis; type: functional, organism-based; conditions: time 14.0 day
[19] = system: 4T1; assay: Induction of apoptosis in mouse 4T1 cells assessed as apoptotic rate at 4000 micromol/L incubated for 24 hrs by Annexin-V/PI staining based flow cytometry relative to control; type: functional; conditions: dose 4000 µmol/L, at 4000 µM
[20] = system: 4T1; assay: Anticancer activity against mouse 4T1 cells assessed as inhibition of cell growth incubated for 72 hrs by CCK-8 assay; type: functional, cell-based; conditions: 4T1, 72 h
[21] = system: 4T1; assay: Induction of apoptosis in mouse 4T1 cells assessed as apoptotic rate at 1000 micromol/L incubated for 24 hrs by Annexin-V/PI staining based flow cytometry relative to control; type: functional; conditions: dose 1000 µmol/L, at 1000 µM
[22] = Prodrug conversion in serum (unknown origin) assessed as drug hydrolysis by measuring stachydrine release at 3 to 20 hrs; type: ADME, cell-free; conditions: time 3-20 hrs
[23] = Toxicity in BALB/c mouse implanted with mouse 4T1 cells assessed as increase in lymphocytes at 0.2 mmol/Kg, po administered once every day for 14 days by routine blood analysis; type: organism-based; conditions: in vivo, 336 h, time 14 day
[24] = system: 4T1; assay: Induction of apoptosis in mouse 4T1 cells assessed as apoptotic rate at 8000 micromol/L incubated for 24 hrs by Annexin-V/PI staining based flow cytometry relative to control; type: functional; conditions: dose 8000 µmol/L, at 8000 µM
[25] = Toxicity in BALB/c mouse implanted with mouse 4T1 cells assessed as splenic edema at 0.2 mmol/Kg, po administered once every day for 14 days; type: organism-based; conditions: in vivo, 336 h, time 14 day
[26] = Toxicity in BALB/c mouse implanted with mouse 4T1 cells assessed as increase in ALT level at 0.2 mmol/Kg, po administered once every day for 14 days by routine blood analysis; type: organism-based; conditions: in vivo, 336 h, time 14 day
[27] = system: 4T1; assay: Antitumor activity against mouse 4T1 cells implanted in BALB/c mouse assessed as tumor growth inhibition at 0.2 mmol/Kg, po administered once every day for 14 days relative to control; type: functional; conditions: 4T1, 336 h, time 14 day, read-out: TGI
[28] = Toxicity in BALB/c mouse implanted with mouse 4T1 cells assessed as blurred spleen morphology at 0.2 mmol/Kg, po administered once every day for 14 days; type: organism-based; conditions: in vivo, 336 h, time 14 day
[29] = system: 4T1; assay: Induction of mitochondrial membrane potential loss in mouse 4T1 cells assessed as green fluorescence at 4000 uM incubated for 24 hrs by JC-1 staining based flow cytometric analysis (reference value: 11.7%); type: cell-based
[30] = Toxicity in BALB/c mouse implanted with mouse 4T1 cells assessed as change in kidney histopathology at 0.2 mmol/Kg, po administered once every day for 14 days; type: organism-based; conditions: in vivo, 336 h, time 14 day
[31] = Toxicity in BALB/c mouse implanted with mouse 4T1 cells assessed as effect on CREA level at 0.2 mmol/Kg, po administered once every day for 14 days by routine blood analysis; type: organism-based; conditions: in vivo, 336 h, time 14 day
[32] = Toxicity in BALB/c mouse implanted with mouse 4T1 cells assessed as increase in neutrophil granulocytes at 0.2 mmol/Kg, po administered once every day for 14 days by routine blood analysis; type: organism-based; conditions: in vivo, 336 h, time 14 day
[33] = Toxicity in BALB/c mouse implanted with mouse 4T1 cells assessed as increase in splenic red pulp at 0.2 mmol/Kg, po administered once every day for 14 days; type: organism-based; conditions: in vivo, 336 h, time 14 day
[34] = system: 4T1; assay: Induction of mitochondrial membrane potential loss in mouse 4T1 cells assessed as red fluorescence at 50 uM incubated for 24 hrs by JC-1 staining based flow cytometric analysis (reference value: 87.9%); type: cell-based
[35] = system: 4T1; assay: Induction of mitochondrial membrane potential loss in mouse 4T1 cells assessed as green fluorescence at 50 uM incubated for 24 hrs by JC-1 staining based flow cytometric analysis (reference value: 11.7%); type: cell-based
[36] = system: 4T1; assay: Induction of apoptosis in mouse 4T1 cells assessed as apoptotic rate at 50 micromol/L incubated for 24 hrs by Annexin-V/PI staining based flow cytometry relative to control; type: functional; conditions: dose 50 µmol/L, at 50 µM
[37] = system: 4T1; assay: Induction of mitochondrial membrane potential loss in mouse 4T1 cells assessed as green fluorescence at 250 uM incubated for 24 hrs by JC-1 staining based flow cytometric analysis (reference value: 11.7%); type: cell-based
[38] = system: 4T1; assay: Induction of apoptosis in mouse 4T1 cells assessed as apoptotic rate at 250 micromol/L incubated for 24 hrs by Annexin-V/PI staining based flow cytometry relative to control; type: functional; conditions: dose 250 µmol/L, at 250 µM
[39] = system: 4T1; assay: Induction of mitochondrial membrane potential loss in mouse 4T1 cells assessed as red fluorescence at 250 uM incubated for 24 hrs by JC-1 staining based flow cytometric analysis (Rvb= 87.9%); type: cell-based
[40] = system: 4T1; assay: Inhibition of cell migration in mouse 4T1 cells assessed as reduction in wound healing incubated for 24 hrs by microscopic analysis; type: functional, cell-based
[41] = system: 4T1; assay: Induction of apoptosis in mouse 4T1 cells assessed as apoptotic rate at 0.04 micromol/L incubated for 24 hrs by Annexin-V/PI staining based flow cytometry relative to control; type: functional; conditions: dose 0.04 µmol/L, at 0.04 µM
[42] = system: 4T1; assay: Induction of apoptosis in mouse 4T1 cells assessed as apoptotic rate at 2 micromol/L incubated for 24 hrs by Annexin-V/PI staining based flow cytometry relative to control; type: functional; conditions: dose 2 µmol/L, at 2 µM
[43] = system: 4T1; assay: Induction of apoptosis in mouse 4T1 cells assessed as apoptotic rate at 0.3 micromol/L incubated for 24 hrs by Annexin-V/PI staining based flow cytometry relative to control; type: functional; conditions: dose 0.3 µmol/L, at 0.3 µM

CCCCOC(=O)C1CCC[N+]1(C)C.[Cl-] (stereo not drawn)
Activity [1]: Non-Toxic | IC50 [2]: 6310 µM | Activity [3]: Non-Toxic | IC50 [4]: 6380 µM | Activity [5]: Toxic | Activity [6]: Toxic | Drug metabolism [7]: Metabolite_Detected | Activity [8]: Toxic | Activity [9]: Non-Toxic | Activity [10]: Active | Activity [11]: Non-Toxic | Activity [12]: Non-Toxic | Activity [13]: Non-Toxic | Activity [14]: Non-Toxic | Activity [15]: Active | Activity [16]: 60.9% | Drug metabolism [17]: Metabolite_Detected | Activity [18]: Active | Activity [19]: 39.8% | IC50 [20]: 5170 µM | Activity [21]: 29.06% | Drug metabolism [22]: Metabolite_Detected | Activity [23]: Non-Toxic | Activity [24]: 51.28% | Activity [25]: Toxic | Activity [26]: Toxic | inhibition in vivo at 200 µmol/kg [27]: 45.1% | Activity [28]: Toxic | Activity [29]: 38.9% | Activity [30]: Non-Toxic | Activity [31]: Non-Toxic | Activity [32]: Non-Toxic | Activity [33]: Toxic

N#CC(C#N)=NNc1cccc(Cl)c1
Activity [34]: 51.1% | Activity [35]: 48.4%

CCCCCCCCCCOC(=O)C1CCC[N+]1(C)C (stereo not drawn)
IC50 [2]: 136 µM | IC50 [4]: 204 µM | IC50 [20]: 98 µM

CCCCCCCCCCCCCCCCCCOC(=O)C1CCC[N+]1(C)C (stereo not drawn)
IC50 [2]: 2.73 µM | IC50 [4]: 2.42 µM | IC50 [20]: 2.01 µM

CCCCCCCCCCCCCCOC(=O)C1CCC[N+]1(C)C (stereo not drawn)
IC50 [2]: 166 µM | IC50 [4]: 165 µM | IC50 [20]: 57 µM

CCCCCCCCOC(=O)C1CCC[N+]1(C)C.[Cl-] (stereo not drawn)
Activity [1]: Non-Toxic | IC50 [2]: 249 µM | Activity [3]: Non-Toxic | Activity [36]: 36.82% | IC50 [4]: 508 µM | Activity [5]: Toxic | Activity [6]: Toxic | Drug metabolism [7]: Metabolite_Detected | Activity [37]: 53.5% | Activity [8]: Toxic | Activity [9]: Non-Toxic | Activity [10]: Active | Activity [11]: Non-Toxic | Activity [38]: 69.9% | Activity [12]: Non-Toxic | Activity [13]: Non-Toxic | Activity [14]: Non-Toxic | Activity [15]: Active | Drug metabolism [17]: Metabolite_Detected | Activity [18]: Active | Activity [39]: 46.5% | IC50 [20]: 140 µM | Activity [21]: 80.8% | Drug metabolism [22]: Metabolite_Detected | Activity [23]: Non-Toxic | Activity [25]: Toxic | Activity [26]: Toxic | inhibition in vivo at 200 µmol/kg [27]: 51.5% | Activity [28]: Toxic | Activity [30]: Non-Toxic | inhibition [40]: Dose-Dependent Effect | Activity [31]: Non-Toxic | Activity [32]: Non-Toxic | Activity [33]: Toxic

CCCCCCOC(=O)C1CCC[N+]1(C)C (stereo not drawn)
IC50 [2]: 1560 µM | IC50 [4]: 2550 µM | IC50 [20]: 1100 µM

CCOC(=O)C1CCC[N+]1(C)C (stereo not drawn)
IC50 [2]: 14000 µM | IC50 [4]: 1710 µM | IC50 [20]: 7890 µM

CCCCCCCCCCCCCCCCOC(=O)C1CCC[N+]1(C)C.[Cl-] (stereo not drawn)
IC50 [2]: 0.701 µM | IC50 [4]: 0.858 µM | Drug metabolism [7]: Metabolite_Detected | Activity [41]: 52% | Drug metabolism [17]: Metabolite_Detected | IC50 [20]: 0.341 µM | Drug metabolism [22]: Metabolite_Detected | Activity [42]: 72% | Activity [43]: 62.1%
